{"source": "patent US20260355197A1", "about": "“METHOD FOR TREATING ATOPIC DERMATITIS” (BEIJING INNOCARE PHARMA TECH CO., LTD., priority 2023, published 2026)", "key": {"[1]": {"system": "patients with moderate to severe atopic dermatitis", "assay": "EASI-75 (difference from placebo) of ICP-332 versus other drugs for treating AD as monotherapy, not head-to-head", "assay_type": "in vivo, human", "conditions": "ICP-332 4 weeks, other drugs 12 or 16 weeks, approved recommended doses, phase III published literature", "from_the_text": "The treatment period for ICP-332 was 4 weeks, while it was 12 or 16 weeks for other drugs with their approved recommended doses from phase III studies. The data of other drugs are based on available published literature.\nThis is a randomized, double-blind, placebo-controlled, phase 2 study to evaluate the safety, efficacy, pharmacokinetics, and pharmacodynamics of ICP-332 (Compound A) in patients with moderate to severe atopic dermatitis.\nA total of 75 subjects with 25 subjects in each group are enrolled. • (1) ICP-332 80 mg, QD for 28 days (40 mg*2 tablets+Placebo*1 tablet) • (2) ICP-332 120 mg. QD for 28 days (40 mg*3 tablets) • (3) Placebo. QD for 28 days (Placebo*3 tablets)"}, "[2]": {"system": "patients with moderate to severe atopic dermatitis", "assay": "Phase 2 randomized, double-blind, placebo-controlled clinical study of ICP-332 in atopic dermatitis patients", "assay_type": "in vivo, human", "conditions": "Week 4"}}}
{"molecule": "Cn1cc(Nc2ncc(Cl)c(N3C[C@@H]4CN(C(=O)CC#N)C[C@]4(C)C3)n2)cn1", "note": "[ICP-332]", "values": [{"measurement": "EASI-75 (difference from placebo) versus other drugs", "setting": "[1]", "value": "best EASI-75 value over placebo"}, {"measurement": "EASI 50, EASI 75, EASI 90, IGA 0/1", "setting": "[2]; 80 mg qd oral", "value": "significant improvements"}, {"measurement": "percent change from baseline in EASI total score", "setting": "[2]; 80 mg qd oral", "value": "significantly reduced the EASI total score (p<0.0001)"}, {"measurement": "EASI 50, EASI 75, EASI 90, IGA 0/1", "setting": "[2]; 120 mg qd oral", "value": "significant improvements"}, {"measurement": "percent change from baseline in EASI total score", "setting": "[2]; 120 mg qd oral", "value": "significantly reduced the EASI total score (p<0.0001)"}]}
